Activity calls are given as the source filed them. The rule behind the calls is not given here.
Legend:
[1] = Inhibition of tyrosine-protein kinase pp60v-src
[2] = molecular target: GMP synthase [glutamine-hydrolyzing] (Homo sapiens) (UniProt P49915); test: Inhibition of GMPS in human A3.01 cells at 50 uM; assay type: cell-based
[3] = Inhibition of matrix metalloprotease
[4] = Inhibition of PKC
[5] = Inhibition of inosine monophosphate dehydrogenase; parameters: unit not given here
[6] = molecular target: T1, Polyunsaturated fatty acid lipoxygenase ALOX15 (Homo sapiens, UniProt P16050); test: Inhibition of 15-lipoxygenase
T1 sequence (P16050 whole entry): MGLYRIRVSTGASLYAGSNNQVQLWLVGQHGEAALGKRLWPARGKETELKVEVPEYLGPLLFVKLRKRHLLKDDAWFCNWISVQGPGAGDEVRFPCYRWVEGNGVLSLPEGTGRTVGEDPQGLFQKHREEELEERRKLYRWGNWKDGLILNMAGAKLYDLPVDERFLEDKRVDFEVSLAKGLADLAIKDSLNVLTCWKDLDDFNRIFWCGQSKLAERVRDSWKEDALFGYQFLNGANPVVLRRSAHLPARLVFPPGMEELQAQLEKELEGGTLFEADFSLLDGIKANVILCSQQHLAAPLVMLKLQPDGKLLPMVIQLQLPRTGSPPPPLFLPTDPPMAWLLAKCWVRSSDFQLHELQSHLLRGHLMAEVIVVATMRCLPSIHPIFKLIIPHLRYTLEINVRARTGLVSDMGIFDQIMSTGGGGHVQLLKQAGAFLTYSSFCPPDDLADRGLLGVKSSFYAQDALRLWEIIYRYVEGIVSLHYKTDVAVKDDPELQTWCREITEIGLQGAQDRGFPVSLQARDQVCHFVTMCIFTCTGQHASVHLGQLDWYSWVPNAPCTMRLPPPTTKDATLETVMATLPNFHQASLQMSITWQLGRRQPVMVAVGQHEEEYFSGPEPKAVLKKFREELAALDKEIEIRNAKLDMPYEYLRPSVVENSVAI

[7] = molecular target: T2, Polyunsaturated fatty acid lipoxygenase ALOX15 (Homo sapiens) (UniProt P16050); test: Inhibition of 15-lipoxygenase at 40 ug/ml; conditions: at 40 µg/mL
T2 sequence (whole entry): T1 sequence (P16050 whole entry)

GMP synthase [glutamine-hydrolyzing] (Homo sapiens), sequence (P49915 whole entry): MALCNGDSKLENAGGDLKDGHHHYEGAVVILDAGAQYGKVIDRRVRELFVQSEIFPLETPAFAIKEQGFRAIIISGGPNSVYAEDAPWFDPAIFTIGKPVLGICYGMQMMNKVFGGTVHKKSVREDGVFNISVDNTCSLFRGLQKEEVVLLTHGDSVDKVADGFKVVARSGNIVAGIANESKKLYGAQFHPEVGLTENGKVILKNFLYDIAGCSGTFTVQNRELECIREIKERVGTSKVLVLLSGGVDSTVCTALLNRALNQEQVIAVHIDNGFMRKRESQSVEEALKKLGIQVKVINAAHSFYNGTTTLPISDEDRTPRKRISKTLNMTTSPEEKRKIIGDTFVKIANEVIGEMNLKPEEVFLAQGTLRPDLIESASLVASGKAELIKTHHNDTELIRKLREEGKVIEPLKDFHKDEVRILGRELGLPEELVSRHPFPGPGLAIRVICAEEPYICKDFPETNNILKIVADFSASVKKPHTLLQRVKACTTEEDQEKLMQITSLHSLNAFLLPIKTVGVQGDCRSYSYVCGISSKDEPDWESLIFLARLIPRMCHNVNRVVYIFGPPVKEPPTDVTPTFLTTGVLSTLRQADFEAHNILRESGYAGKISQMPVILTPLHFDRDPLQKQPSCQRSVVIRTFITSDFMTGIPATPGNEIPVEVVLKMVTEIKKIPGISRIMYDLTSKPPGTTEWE

| SMILES | Activity [1] | inhibition [2] [%] | Activity [3] | Activity [4] | EC50 [5] | IC50 [6] [µM] | inhibition [7] [%] |
| --- | --- | --- | --- | --- | --- | --- | --- |
| Oc1c(Br)cc(Br)cc1Oc1ccc(Br)cc1Br | inactive |  |  |  |  |  |  |
| Oc1c(Br)cc(Br)cc1Oc1c(O)c(Br)c(Br)c(Br)c1Br | inactive | 96 | inactive | inactive | 2.79 | 1.3 |  |
| Oc1cc(Br)c(Br)c(Br)c1Oc1cc(Br)cc(Br)c1O | inactive | 89 | inactive |  |  |  |  |
| Oc1c(Oc2ccc(Br)cc2Br)cc(Br)c(Br)c1Br | inactive | 71 | inactive |  | 4.4 | 7.4 |  |
| COc1c(Br)cc(Br)cc1Oc1c(O)cc(Br)cc1Br | inactive |  |  |  |  |  |  |
| Oc1cc(Br)cc(Br)c1Oc1ccc(Br)cc1Br | inactive | 56 | inactive |  | 5.71 |  |  |
| COc1cc(Br)cc(Br)c1Oc1cc(Br)cc(Br)c1O | inactive |  |  |  |  |  |  |
| Oc1c(Br)cc(Br)cc1Oc1c(Br)cc(Br)c(Br)c1O | inactive | 70 | inactive |  | 7.8 | 2.5 |  |
| Oc1cc(Br)c(Br)c(Br)c1Oc1ccc(Br)cc1Br | inactive | 99 | inactive |  | 4 | 7.4 |  |
| Oc1cc(Br)cc(Br)c1Oc1c(O)cc(Br)c(Br)c1Br |  |  |  |  |  |  | 100 |
